In general, IC50 refers to the concentration needed to halve the response being measured.

Each structure is given as a SMILES string.

Results on three molecules are retold here after ChEMBL document CHEMBL5136990, “Histone deacetylase 6 inhibitors with blood-brain barrier penetration as a potential strategy for CNS-Disorders therapy” (Eur J Med Chem, 2022).

Assay [1] addresses T1, Histone deacetylase 1 (Homo sapiens, UniProt Q13547). Put plainly: Inhibition of recombinant human HDAC1 using fluorogenic substrate.
Assay [2] has as its target T2, Histone deacetylase 2 (Homo sapiens, UniProt Q92769). Put plainly: Inhibition of recombinant human HDAC2 using fluorogenic substrate.
For the next assay, the target named is Histone deacetylase 3 (Homo sapiens, UniProt O15379). The experiment in a line: Inhibition of recombinant human HDAC3 using fluorogenic substrate.
Assay [3] deals with T3, Polyamine deacetylase HDAC10 (Homo sapiens, UniProt Q969S8).
T3 sequence (Q969S8 whole entry): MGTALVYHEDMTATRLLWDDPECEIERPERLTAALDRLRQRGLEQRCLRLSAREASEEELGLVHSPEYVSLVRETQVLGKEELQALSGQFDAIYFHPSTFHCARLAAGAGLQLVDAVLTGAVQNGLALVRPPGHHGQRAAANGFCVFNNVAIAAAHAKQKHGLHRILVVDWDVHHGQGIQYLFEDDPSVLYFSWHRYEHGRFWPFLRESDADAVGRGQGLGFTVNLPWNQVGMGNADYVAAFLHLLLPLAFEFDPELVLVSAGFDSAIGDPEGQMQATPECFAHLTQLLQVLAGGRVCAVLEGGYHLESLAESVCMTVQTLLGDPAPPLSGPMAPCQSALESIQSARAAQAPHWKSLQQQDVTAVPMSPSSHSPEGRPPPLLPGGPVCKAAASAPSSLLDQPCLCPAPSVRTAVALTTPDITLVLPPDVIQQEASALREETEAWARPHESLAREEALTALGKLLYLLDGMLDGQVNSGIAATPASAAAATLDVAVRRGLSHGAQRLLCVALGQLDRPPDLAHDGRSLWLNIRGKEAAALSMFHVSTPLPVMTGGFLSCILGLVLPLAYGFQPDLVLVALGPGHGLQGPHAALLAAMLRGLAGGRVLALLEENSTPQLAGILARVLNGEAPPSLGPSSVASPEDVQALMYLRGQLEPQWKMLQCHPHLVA
The experiment in a line: Inhibition of recombinant human HDAC10 using fluorogenic substrate.

Assay [4] can be described thus: Inhibition of full-length recombinant human HDAC3/NcoR2 using RHKKAc peptide as substrate by fluorescence based assay.
Assay [5] concerns the target T1, Histone deacetylase 1. The experiment in a line: Inhibition of HDAC1 (unknown origin).
Assay [6] addresses T2, Histone deacetylase 2. The experiment in a line: Inhibition of HDAC2 (unknown origin).
In assay [7] the target is T4, Protein deacetylase HDAC6 (Homo sapiens, UniProt Q9UBN7).
T4 sequence (Q9UBN7 whole entry): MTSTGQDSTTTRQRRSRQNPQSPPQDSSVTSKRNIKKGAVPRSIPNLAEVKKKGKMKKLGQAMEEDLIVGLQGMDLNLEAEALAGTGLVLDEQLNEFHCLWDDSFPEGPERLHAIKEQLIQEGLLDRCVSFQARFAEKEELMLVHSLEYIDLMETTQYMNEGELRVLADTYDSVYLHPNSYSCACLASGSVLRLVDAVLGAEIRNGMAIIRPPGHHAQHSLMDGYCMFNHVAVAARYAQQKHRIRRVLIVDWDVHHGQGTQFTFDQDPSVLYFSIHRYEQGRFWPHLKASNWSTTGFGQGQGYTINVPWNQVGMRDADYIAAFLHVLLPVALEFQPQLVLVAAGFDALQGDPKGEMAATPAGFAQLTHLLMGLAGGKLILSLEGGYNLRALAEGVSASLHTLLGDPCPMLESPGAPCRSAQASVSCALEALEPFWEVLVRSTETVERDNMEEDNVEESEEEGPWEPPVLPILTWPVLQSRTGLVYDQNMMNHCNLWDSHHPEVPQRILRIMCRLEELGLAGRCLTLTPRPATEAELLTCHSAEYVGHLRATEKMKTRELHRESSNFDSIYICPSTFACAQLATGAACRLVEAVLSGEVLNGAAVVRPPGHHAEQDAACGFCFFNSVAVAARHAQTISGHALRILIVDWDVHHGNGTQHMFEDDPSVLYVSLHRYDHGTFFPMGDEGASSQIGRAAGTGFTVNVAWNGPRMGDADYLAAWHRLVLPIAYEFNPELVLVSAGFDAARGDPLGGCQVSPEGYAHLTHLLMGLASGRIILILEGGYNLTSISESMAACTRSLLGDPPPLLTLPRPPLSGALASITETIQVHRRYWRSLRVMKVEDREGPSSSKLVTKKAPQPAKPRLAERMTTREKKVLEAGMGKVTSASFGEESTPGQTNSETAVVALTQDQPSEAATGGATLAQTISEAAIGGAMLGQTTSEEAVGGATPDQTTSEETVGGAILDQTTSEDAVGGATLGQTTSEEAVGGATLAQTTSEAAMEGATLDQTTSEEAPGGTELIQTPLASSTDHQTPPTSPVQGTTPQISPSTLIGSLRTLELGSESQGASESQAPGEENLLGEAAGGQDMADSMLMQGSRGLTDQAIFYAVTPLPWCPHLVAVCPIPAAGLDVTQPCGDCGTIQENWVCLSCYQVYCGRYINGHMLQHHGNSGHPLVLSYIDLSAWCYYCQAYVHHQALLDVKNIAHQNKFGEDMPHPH
Put plainly: Inhibition of HDAC6 (unknown origin).

In assay [8] the target is High affinity cGMP-specific 3',5'-cyclic phosphodiesterase 9A (Homo sapiens, UniProt O76083). The experiment in a line: Inhibition of PDE9 (unknown origin).
The target in assay [9] is cGMP-specific 3',5'-cyclic phosphodiesterase (Homo sapiens, UniProt O76074). Put plainly: Inhibition of PDE5 (unknown origin).

T1 sequence (Q13547 whole entry): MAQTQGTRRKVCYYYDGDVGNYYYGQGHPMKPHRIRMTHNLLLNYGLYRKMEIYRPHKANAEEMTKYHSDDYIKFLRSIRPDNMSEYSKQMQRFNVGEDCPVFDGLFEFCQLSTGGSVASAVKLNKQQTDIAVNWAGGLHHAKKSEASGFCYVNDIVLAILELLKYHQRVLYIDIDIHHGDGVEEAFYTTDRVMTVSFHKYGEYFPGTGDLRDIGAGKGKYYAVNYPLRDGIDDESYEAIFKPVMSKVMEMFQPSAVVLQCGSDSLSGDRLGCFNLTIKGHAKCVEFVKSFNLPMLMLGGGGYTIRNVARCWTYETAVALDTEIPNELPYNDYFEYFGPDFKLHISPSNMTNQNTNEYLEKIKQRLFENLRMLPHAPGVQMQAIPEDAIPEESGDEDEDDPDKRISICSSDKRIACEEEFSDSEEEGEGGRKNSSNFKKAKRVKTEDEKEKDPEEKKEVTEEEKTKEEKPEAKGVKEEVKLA
T2 sequence (Q92769 whole entry): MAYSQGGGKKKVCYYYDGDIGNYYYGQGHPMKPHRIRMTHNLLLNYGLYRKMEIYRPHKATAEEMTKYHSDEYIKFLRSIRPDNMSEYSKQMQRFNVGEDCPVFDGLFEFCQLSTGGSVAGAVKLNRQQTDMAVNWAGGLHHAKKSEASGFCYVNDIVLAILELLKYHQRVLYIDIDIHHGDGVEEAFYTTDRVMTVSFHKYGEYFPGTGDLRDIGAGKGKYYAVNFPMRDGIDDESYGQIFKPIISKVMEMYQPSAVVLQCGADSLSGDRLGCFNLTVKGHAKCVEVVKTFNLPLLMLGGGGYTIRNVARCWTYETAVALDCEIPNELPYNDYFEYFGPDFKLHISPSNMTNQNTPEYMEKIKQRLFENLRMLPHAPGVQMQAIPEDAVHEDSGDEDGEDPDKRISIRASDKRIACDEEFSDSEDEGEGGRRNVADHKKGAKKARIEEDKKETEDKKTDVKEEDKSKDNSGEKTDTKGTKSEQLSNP
Sequence of Histone deacetylase 3 (O15379 whole entry): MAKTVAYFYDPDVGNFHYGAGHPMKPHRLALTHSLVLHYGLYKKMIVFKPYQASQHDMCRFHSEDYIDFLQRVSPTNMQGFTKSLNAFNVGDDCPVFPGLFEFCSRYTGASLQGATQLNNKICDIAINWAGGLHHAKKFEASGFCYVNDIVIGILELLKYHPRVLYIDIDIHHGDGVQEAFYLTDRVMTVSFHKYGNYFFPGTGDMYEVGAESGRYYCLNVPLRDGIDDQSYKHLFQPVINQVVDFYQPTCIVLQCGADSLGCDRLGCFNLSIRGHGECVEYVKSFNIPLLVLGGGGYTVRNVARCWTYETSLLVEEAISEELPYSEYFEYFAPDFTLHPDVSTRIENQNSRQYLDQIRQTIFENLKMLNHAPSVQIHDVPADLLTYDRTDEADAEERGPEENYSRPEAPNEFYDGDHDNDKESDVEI
Sequence of High affinity cGMP-specific 3',5'-cyclic phosphodiesterase 9A (O76083 whole entry): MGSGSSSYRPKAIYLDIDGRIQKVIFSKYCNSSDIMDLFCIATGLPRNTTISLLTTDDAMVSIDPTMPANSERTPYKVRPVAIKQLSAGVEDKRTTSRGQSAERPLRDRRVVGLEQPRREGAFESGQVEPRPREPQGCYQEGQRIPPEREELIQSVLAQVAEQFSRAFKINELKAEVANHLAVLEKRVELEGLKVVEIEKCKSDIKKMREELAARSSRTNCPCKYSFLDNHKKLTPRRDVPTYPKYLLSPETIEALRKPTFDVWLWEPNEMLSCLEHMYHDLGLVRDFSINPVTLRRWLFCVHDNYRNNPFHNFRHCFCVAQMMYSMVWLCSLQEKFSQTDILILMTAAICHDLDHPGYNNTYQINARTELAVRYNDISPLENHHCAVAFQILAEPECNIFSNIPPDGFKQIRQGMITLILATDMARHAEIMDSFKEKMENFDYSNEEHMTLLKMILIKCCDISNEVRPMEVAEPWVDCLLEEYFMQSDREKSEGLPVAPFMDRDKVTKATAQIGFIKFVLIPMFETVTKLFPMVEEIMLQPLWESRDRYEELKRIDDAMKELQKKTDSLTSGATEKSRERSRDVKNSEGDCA

Consider `CN(Cc1ccc(C(=O)NO)cc1[18F])CC12CC3CC(CC(C3)C1)C2`, for which the IC50 (on Histone deacetylase 1 [1]; on Histone deacetylase 2 [2]; on Histone deacetylase 3; in assay [3]) was > 10 µM in each case.
As to `O=C(NO)c1ccc(CN2CCCc3cc(Cl)ccc32)cc1`, in [4], the IC50 stood at 29.5 µM.
Consider `C[C@@H]1CN(Cc2ccc(C(=O)NO)cc2)C[C@H]1c1nc2c(cnn2C2CCCC2)c(=O)[nH]1`, for which the IC50 is 0.593 µM against Histone deacetylase 1 [5]; 3.53 µM at Histone deacetylase 2 [6]; 0.04 µM in assay [7]; 0.107 µM in assay [8]; > 10 µM in assay [9].
